This passage reports Drug uptake, half-life and Ratio results from ChEMBL document CHEMBL1275594, “Cellular pharmacokinetics of the novel biaryloxazolidinone radezolid in phagocytic cells: studies with macrophages and polymorphonuclear neutrophils” (Antimicrob Agents Chemother, 2010).

Data set [1] relates to THP-1. Kind of data set: Drug level in human THP1 cells at 50 mg/L at pH 6.5. The class given is ADME, cell-based. The note with it: thp-1, pH 6.5.
Data set [2] has as its system THP-1. In words: Drug level in human THP1 cells at 50 mg/L after 2 hrs in presence of 50 uM proton inophore monesin relative to control. The data set is classed as ADME, cell-based. As to conditions: thp-1, 2 h; call rule not given here.
Data set [3] is described as follows: Half life in mouse J774 cells at 4 mg/L. The data set is classed as ADME, cell-based.
Data set [4] relates to J774. Kind of data set: Drug level in mouse J774 cells at 50 mg/L after 2 hrs in presence of < 10% fetal calf serum relative to control. The data set is classed as ADME, cell-based. The note with it: j774, 2 h.
Data set [5] relates to J774. In words: Drug level in mouse J774 cells at 50 mg/L in presence of 50 uM proton inophore monesin relative to control. The class given is ADME, cell-based.
In data set [6] the test system is J774. Kind of data set: Drug level in mouse J774 cells at 50 mg/L at pH 6.5. The class given is ADME, cell-based. As to conditions: j774, pH 6.5.
The subject of data set [7] is THP-1. In words: Drug level in human THP1 cells at 50 mg/L after 30 mins at pH 6. The data set is classed as ADME, cell-based. As to conditions: thp-1, pH 6, 0.5 h.
For data set [8], the system named is THP-1. Kind of data set: Drug level in human THP1 cells at 50 mg/L after 2 hrs in presence 60 mM deoxyglucose and 5 mM NaN3 relative to control. The note with it: thp-1, 2 h. The data set is classed as ADME, cell-based.
A short description of data set [9]: Ratio of drug level for cellular to extracellular region of human PMNC cells at 10 to 50 ug/ml. The data set is classed as ADME, cell-based.
Data set [10] has as its system THP-1. Kind of data set: Drug level in human THP1 cells at 250 mg/L after 30 mins at pH 6. As to conditions: thp-1, pH 6, 0.5 h. The data set is classed as ADME, cell-based.
The nature of data set [11]: Half life in human THP1 cells at 4 mg/L. As to conditions: THP-1 cells. The class given is ADME, cell-based.
Data set [12] has as its system THP-1. Kind of data set: Drug level in human THP1 cells at 250 mg/L after 2 hrs in presence of 50 uM proton inophore monesin relative to control. The data set is classed as ADME, cell-based. The note with it: thp-1, 2 h.
Data set [13] concerns THP-1. In words: Drug level in human THP1 cells at 50 mg/L at pH < 7 in presence of 50 uM proton inophore monesin. The data set is classed as ADME, cell-based.
A short description of data set [14]: Half life in human PMNC at 4 mg/L. The data set is classed as ADME.
Data set [15] relates to THP-1. In words: Drug level in human THP1 cells at 10 mg/L after 2 hrs in presence of 50 uM proton inophore monesin relative to control. The class given is ADME, cell-based. As to conditions: thp-1, 2 h.
In data set [16] the test system is THP-1. Kind of data set: Drug level in human THP1 cells at 50 mg/L after 2 hrs in presence 250 uM efflux pump inhibitor gemfibrozil relative to control. As to conditions: thp-1, 2 h. The class given is ADME, cell-based.
Data set [17] relates to THP-1. Kind of data set: Drug level in human THP1 cells at 50 mg/L after 2 hrs in presence of < 10% fetal calf serum relative to control. The note with it: thp-1, 2 h. The class given is ADME, cell-based.
For data set [18], the system named is THP-1. In words: Ratio of drug level for cellular to extracellular region of human THP-1 cells at 10 to 50 ug/ml. The data set is classed as ADME, cell-based.
The test system of data set [19] is THP-1. In words: Drug level in human THP1 cells at 50 mg/L after 2 hrs in presence 10 uM efflux pump inhibitor verapamil relative to control. The class given is ADME, cell-based. The note with it: thp-1, 2 h.
The test system of data set [20] is THP-1. Kind of data set: Drug level in human THP1 cells at 10 mg/L after 2 hrs in presence 250 uM efflux pump inhibitor gemfibrozil relative to control. The note with it: thp-1, 2 h. The data set is classed as ADME, cell-based.
For data set [21], the system named is THP-1. In words: Drug level in human THP1 cells at 10 mg/L at pH =< 6.5. The class given is ADME, cell-based.
The test system of data set [22] is THP-1. In words: Drug level in human THP1 cells at 10 mg/L after 2 hrs in presence 10 uM efflux pump inhibitor verapamil relative to control. The data set is classed as ADME, cell-based. The note with it: thp-1, 2 h.

As to `CC(=O)NC[C@H]1CN(c2ccc(-c3ccc(CNCc4cnn[nH]4)cc3)c(F)c2)C(=O)O1` [RADEZOLID], the Drug uptake result is “Active” in the data set on THP-1 [1]; 20% with THP-1 [2]; “Active” with J774 [4]; 30% in the data set on J774 [5]; “Active” with J774 [6]; 25% in the data set with THP-1 [7]. For the same compound, the Drug uptake entry in the data set with THP-1 [8] is “Active”; in the data set with THP-1 [10] it was 25%; in the data set on THP-1 [12], 25%; in the data set on THP-1 [13] it was “Active”; in the data set with THP-1 [15], 10%; with THP-1 [16], “Active”. Further, the Drug uptake result in the data set with THP-1 [17] and with THP-1 [19] was “Active” in each case. The half-life at 4 mg/L in [3], in [11] and in [14] was 6 min each time. For the same compound, the Ratio (in data set [9]; in the data set on THP-1 [18]) was 8.5 in each case.
On to `CC(=O)NC[C@H]1CN(c2ccc(N3CCOCC3)c(F)c2)C(=O)O1` [LINEZOLID], for which the Drug uptake with THP-1 [2] is 20%; in the data set on THP-1 [7], 25%; in the data set with THP-1 [10], 25%; in the data set on THP-1 [12] it was 25%; in the data set with THP-1 [15], 10%.
In the case of `CC[C@H]1OC(=O)[C@H](C)[C@@H](O[C@H]2C[C@@](C)(OC)[C@@H](O)[C@H](C)O2)[C@H](C)[C@@H](O[C@@H]2O[C@H](C)C[C@H](N(C)C)[C@H]2O)[C@](C)(O)C[C@@H](C)CN(C)[C@H](C)[C@@H](O)[C@]1(C)O` [AZITHROMYCIN], the Ratio in the data set with THP-1 [20] and in the data set with THP-1 [22] was 1.7 throughout. Further, the Drug uptake in the data set on THP-1 [21] is reported as 10%.
